Measured values as given in patent publication US20110257146A1, “Method of Treating Kcnq Related Disorders Using Organozinc Compounds” (The johns Hopkins University, priority 2006, published 2011).
Several values for one entry are separate records, joined by “and”; a condition that tells them apart may be missing. Identical values can stand only once.

Assays:
KCNQ2 L275A = biological target: T1, KCNQ2 L275A (Rattus norvegicus, UniProt O88943, L275A); experiment: Whole-cell recording of KCNQ2 L275A mutant; assay type: cell-based
T1 construct: expressed in transfected cells
Text: FIG. 9. KCNQ2 point mutants selectively lose ZnPy sensitivity. […] Each mutation site was indicated based on the predicted transmembrane regions. Dashed line indicates the potentiation level of wt KCNQ2 channel in the absence of ZnPy. […] C. Modeling of the S5-pore-S6 region of KCNQ2.
(§1) Mutagenesis—Starting from KCNQ cDNAs, the KCNQ2 point mutants were constructed by recombinant PCR and verified by sequencing.
(§2) Electrophysiological Recording—Standard whole-cell recording was used. Pipettes were pulled from borosilicate glass capillaries (TW150-4, World Precision Instruments, Sarasota, Fla.). When filled with the intracellular solution, the pipettes have resistances of […]. During the recording, constant perfusion of extracellular solution was maintained using a BPS perfusion system (ALA, Westbury, N.Y.). Pipette solution contained (mM): KCl 145, MgCl2 1, EGTA 5, HEPES 10, MgATP 5 (pH 7.3); extracellular solution contained (mM): NaCl 140, KCl 3, CaCl2 2, MgCl2 1.5, HEPES 10, glucose 10 (pH 7.4). Current and voltage were recorded using an Axopatch-200A amplifier, filtered at 1 kHz and digitized using a DigiData 1322A with pClamp 9.2 software (Axon Instruments, Foster City, Calif.). Series resistance compensation was also used and set to 60-80%.

KCNQ2(Y284C) = biological target: T2, KCNQ2(Y284C) (Rattus norvegicus, UniProt O88943, Y284C); experiment: Whole-cell recording of KCNQ2(Y284C) BFNC mutant in CHO cells; assay type: cell-based; conditions: 10 μM ZnPy
T2 construct: expressed in transfected cells; host or cells: CHO cells, transient
Description: FIG. 11. ZnPy effects on BFNC mutant channels expressed in CHO cells. A. whole-cell currents of KCNQ2(R207W), KCNQ2(Y284C), and KCNQ2(A306T) were recorded in the absence (left) and presence (right) of 10 μM ZnPy, Vh was −80 mV, in 10 mV voltage steps from −70 mV to +50 mV. B. a histogram plotting potentiation effects on KCNQ2 wild type (wt) and BFNC mutants (R207W, Y284C and […]) by ZnPy (filled box) and retigabine (open box) (n≧4, * p<0.001, ** p<0.05).
as §1
as §2, with “Series resistance compensation was also used and set to 60-80%.” left out

KCNQ2 = KCNQ2 (Rattus norvegicus, UniProt O88943); experiment: Single channel outside-out patch recording of KCNQ2; assay type: cell-based; set-up: expressed in transfected cells; host or cells: CHO cells
Description: For single channel recording procedure, outside-out patch recording was used. The pipettes had resistances of 7-15 MΩ when filled with the intracellular solution of the following composition (mM): KCl 145, MgCl2 1, EGTA 5, HEPES 10, MgATP 5 (pH 7.3). Extracellular solution contained (mM): NaCl 150, KCl 5, CaCl2 2, MgCl2 1, HEPES 10, glucose 10 (pH 7.4). Current and voltage were recorded using an Axopatch-200B amplifier, sample at 4 kHz and filtered at 200 Hz, and digitized using a DigiData 1322A with pClamp 9.2 software (Axon Instruments, Foster City, Calif.).
The open probability (Po) and single channel current (i) were calculated by fitting all-point histograms with single- or multi-Gaussian curves. The ratio of the area under the fitted ‘open’ Gaussian to the total area under the entire Gaussian was taken as Po, and the difference between the fitted “closed” and “open” peaks was taken as i, single channel conductance (γ) was calculated by the equation: γ=i/(V−V5).

hippocampal neurons = experiment: Membrane potential and elicited action potentials of isolated hippocampal neurons; assay type: cell-based, rat; conditions: 10 μM ZnPy
Description: FIG. 10. ZnPy potentiation of native M-current. A. M current recorded from an isolated rat dorsal root ganglion neuron, Vh was −60 mV, stepped to −20 mV, followed by a step to −50 mV, and stepped back to −20 mV. B. Histograms show M-current amplitudes in the presence and absence of 10 μM ZnPy (n=10, * p<0.001). M-current amplitudes were measured by fitting the IM relaxation with an exponential equation. The recording bath solution includes 1 μM TTX, 0.2 mM TEA, 1 mM 4-AP, 50 μM CNQX, and 10 μM bicuculline. C. Membrane potential of an isolated hippocampal neuron was monitored when 10 μM ZnPy was applied in bath solution followed by the addition of 15 μM linopirdine. D. Action potentials elicited by 200 pA current injection to a patched hippocampal neuron. The ZnPy treatments are as indicated.
Neuron Culture—Dorsal root ganglia (DRG) was collected from fourteen-day-old CD rat and incubated in collagenase (sigma, 500 U/ml, 15 min) and then trypsin (Sigma, 1 mg/ml, 30 min) at 37° C. Single DRG neurons were isolated by mechanical trituration with a fire-polished glass Pasteur pipette. Hippocampal tissue was dissected out from CD rat postnatal day 0. The tissue was digested with papain (Worthington Biochem, 20 U/ml, 30 min) and resuspended into single cells. The single-cell suspension was plated onto a monolayer of glial cells that were growing on coated cover slips. Cytosine-1-D-arabinofuranoside at 5 μM was added into the culture medium 24-48 hours later to arrest glial cell proliferation. The culture medium consisted of Neurobasal™ medium with B-27 supplement (Gibco), penicillin/streptomycin and 2 mM L-glutamine. All cells were maintained at 37° C. with 5% CO2 prior to recording.
Electrophysiological Recording—Standard whole-cell recording was used. Pipettes were pulled from borosilicate glass capillaries (TW150-4, World Precision Instruments, Sarasota, Fla.). […] Current and voltage were recorded using an Axopatch-200A amplifier, filtered at 1 kHz and digitized using a DigiData 1322A with pClamp 9.2 software (Axon Instruments, Foster City, Calif.). […]

Question: Which results are given for `S=c1ccccn1[O][Zn][O]n1ccccc1=S` [ZnPy, Zinc Pyrithione]?
Answer: change in V1/2 caused by ZnPy (KCNQ2 L275A): significant reduction on changes in V1/2; fold current increase (KCNQ2(Y284C)): more than 3 fold; single channel open probability (Po) (KCNQ2; 0 mV, 10 μM ZnPy, control 0.13): 0.77±0.06 and 0.77; fitted unitary current amplitude (KCNQ2; 0 mV, 10 μM ZnPy, control 0.51 pA): 0.52 pA; fold increase in Po (KCNQ2; 10 μM ZnPy): 5.9 fold; single channel conductance (KCNQ2; in the presence or absence of ZnPy): 6.6±0.15 pS; effect on membrane potential (hippocampal neurons): noticeable hyperpolarization of membrane potential; effect on repetitive firing elicited by current injection (hippocampal neurons; 200 pA current injection): immediately abolished the repetitive firing
